Measurements published in ChEMBL document CHEMBL1201862, “PubChem BioAssay data set” (2004).
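Method: 48-hour compound exposure of cells in 96-well plates, five concentrations, linear interpolation of endpoints. GI50 is the concentration that inhibits growth by half.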 Active and inactive are the calls of the source. Cut-off read from the data, not from the text of the source: active = GI50 up to about 1.1 µM and inactive = higher.

Assays:
Experiment in all cases: inhibition of tumour cell growth, NCI panel, 48 h
EKVX = system: EKVX
SF-539 = system: SF-539
KM12 = system: KM12
U-251 = system: U-251
A498 = system: A498
SN12C = system: SN12C
OVCAR-8 = system: OVCAR-8
HCT-15 = system: HCT-15
SK-MEL-2 = system: SK-MEL-2
BT-549 = system: BT-549
NCI-H522 = system: NCI-H522
SF-295 = system: SF-295
SF-268 = system: SF-268
OVCAR-3 = system: OVCAR-3
MCF7 = system: MCF7
PC-3 = system: PC-3
UACC-62 = system: UACC-62
HT-29 = system: HT-29
OVCAR-4 = system: OVCAR-4
NCI-H23 = system: NCI-H23
CCRF-CEM = system: CCRF-CEM
UACC-257 = system: UACC-257
HOP-92 = system: HOP-92
MDA-MB-231 = system: MDA-MB-231
HCT-116 = system: HCT-116
OVCAR-5 = system: OVCAR-5
NCI/ADR-RES = system: NCI/ADR-RES
SK-MEL-28 = system: SK-MEL-28
LOX IMVI = system: LOX IMVI
NCI-H460 = system: NCI-H460
UO-31 = system: UO-31
SNB-19 = system: SNB-19
HOP-62 = system: HOP-62
SNB-75 = system: SNB-75
MOLT-4 = system: MOLT-4
786-0 = system: 786-0
MDA-MB-435 = system: MDA-MB-435
T47D = system: T47D
A549 = system: A549
RXF 393 = system: RXF 393
M14 = system: M14
SW-620 = system: SW-620
COLO 205 = system: COLO 205
K562 = system: K562
IGROV-1 = system: IGROV-1
Hs-578T = system: Hs-578T
NCI-H226 = system: NCI-H226
SK-MEL-5 = system: SK-MEL-5
SR = system: SR
SK-OV-3 = system: SK-OV-3
DU-145 = system: DU-145
TK-10 = system: TK-10
Malme-3M = system: Malme-3M
ACHN = system: ACHN
CAKI-1 = system: CAKI-1
HL-60 = system: HL-60

Cc1ccc(C(=N)c2ccccc2Cc2cccc3ccccc23)c2ccccc12
GI50 (EKVX): 60.1 µM (inactive)
GI50 (SF-539): > 100 µM (inactive)
GI50 (KM12): > 100 µM (inactive)
GI50 (U-251): > 100 µM (inactive)
GI50 (A498): > 100 µM (inactive)
GI50 (SN12C): > 100 µM (inactive)
GI50 (OVCAR-8): > 100 µM (inactive)
GI50 (HCT-15): 40.6 µM
GI50 (SK-MEL-2): > 100 µM (inactive)
GI50 (BT-549): > 100 µM (inactive)
GI50 (NCI-H522): 56.5 µM (inactive)
GI50 (SF-295): 71.4 µM (inactive)
GI50 (SF-268): > 100 µM (inactive)
GI50 (OVCAR-3): 79.1 µM (inactive)
GI50 (MCF7): 42.6 µM (inactive)
GI50 (PC-3): > 100 µM (inactive)
GI50 (UACC-62): 99.1 µM (inactive)
GI50 (HT-29): 11.7 µM (inactive)
GI50 (OVCAR-4): > 100 µM (inactive)
GI50 (NCI-H23): 95.3 µM (inactive)
GI50 (CCRF-CEM): 82.6 µM (inactive)
GI50 (UACC-257): 33.1 µM (inactive)
GI50 (HOP-92): > 100 µM (inactive)
GI50 (MDA-MB-231): > 100 µM (inactive)
GI50 (HCT-116): 22.1 µM (inactive)
GI50 (OVCAR-5): > 100 µM (inactive)
GI50 (NCI/ADR-RES): > 100 µM (inactive)
GI50 (SK-MEL-28): > 100 µM (inactive)
GI50 (LOX IMVI): 80.2 µM (inactive)
GI50 (NCI-H460): 41.5 µM (inactive)
GI50 (UO-31): 44.8 µM (inactive)
GI50 (SNB-19): > 100 µM (inactive)
GI50 (HOP-62): > 100 µM (inactive)
GI50 (SNB-75): > 100 µM (inactive)
GI50 (MOLT-4): 58.7 µM (inactive)
GI50 (786-0): > 100 µM (inactive)
GI50 (MDA-MB-435): > 100 µM (inactive)
GI50 (T47D): 65.3 µM (inactive)
GI50 (A549): 54.3 µM (inactive)
GI50 (RXF 393): > 100 µM (inactive)
GI50 (M14): 32.3 µM (inactive)
GI50 (SW-620): 71 µM (inactive)
GI50 (COLO 205): 22.1 µM (inactive)
GI50 (K562): 80 µM (inactive)
GI50 (IGROV-1): > 100 µM (inactive)
GI50 (Hs-578T): > 100 µM (inactive)
GI50 (NCI-H226): > 100 µM (inactive)
GI50 (SK-MEL-5): 31.9 µM (inactive)
GI50 (SR): 41.6 µM (inactive)
GI50 (SK-OV-3): > 100 µM (inactive)
GI50 (DU-145): > 100 µM (inactive)
GI50 (TK-10): > 100 µM (inactive)
GI50 (Malme-3M): > 100 µM (inactive)
GI50 (ACHN): > 100 µM (inactive)
GI50 (CAKI-1): > 100 µM (inactive)
GI50 (HL-60): 44.1 µM (inactive)
